Reference: EP4407316A1, “PROTEASOMAL DEGRADATION OF PROTEINS” (Katholieke Universiteit Leuven, KU Leuven R&D, priority 2023, dated 2024)

Legend:
[1] = test system: ASB8 knockout and overexpressing cells; experiment: MTS cell viability assay in ASB8 knockout and ASB8 overexpressing cells; format: cell-based, human; conditions: HAP1 four days, KMS-28BM six days of treatment
Excerpt: (§1) Figure 4. XPO1 protein degradation is regulated by ASB8. a-b Sensitization profile of HAP1 cells with either knockout or overexpression of ASB8 under selection with selinexor. Cell viability when transduced with a safe-targeting or ASB8 targeting sgRNA (a). Cell viability when transduced with a non-coding stuffer sequence or ASB8 coding sequence at two different multiplicities of infection (MOI) (b). After four days of treatment with compound at the indicated concentrations, cell viability was measured by MTS assay. Data were normalized to untreated cells and represent mean ±SD of three separate experiments performed in triplicate. IC50 values were compared with control using an extra sum-of-squares F-test. c-d Monitoring of XPOL degradation in HAP1 cells with western blot. Comparison of cells stably transduced with a safe-targeting versus ASB8 targeting sgRNA (c) or with a stuffer sequence versus ASB8 coding sequence (d). Cells were treated overnight with selinexor and bortezomib as indicated. […]
(§2) Figure 10. a Viability of KMS-28BM cells stably transduced with a stuffer or ASB8 coding lentiviral vector and treated with different concentrations of selinexor. b-e Viability of ASB8 knockout and ASB8 overexpressing HAP1 cells treated with different concentrations of KPT-9274 (b, c) or ispinesib (d, e). f-g Viability of ASB8 overexpressing KMS-28BM cells treated with different concentrations of KPT-9274 (f) or ispinesib (g). After four days (HAP1) or six days (KMS-28BM) of treatment with compound at the indicated concentrations, cell viability was measured by MTS assay. […] IC50 values were compared with control using an extra sum-of-squares F-test. h Representative images of fluorescence microscopy imaging of subcellular ASB8 localization. […]
HAP1 cells were seeded in 96-well plates at 2500 cells/well in 100 µL medium. […] For each experiment, absorbance measurements of three replicate wells were averaged. […]

XPO1 = molecular target: T1, XPO1 (Homo sapiens, UniProt O14980); experiment: Western blot (Simple Western) monitoring XPO1 degradation in HAP1 cells; format: cell-based; conditions: for XPO1 degradation: overnight treatment
T1 construct: endogenous in cells
Excerpt: Figure 4. XPO1 protein degradation is regulated by ASB8. a-b Sensitization profile of HAP1 cells with either knockout or overexpression of ASB8 under selection with selinexor. Cell viability when transduced with a safe-targeting or ASB8 targeting sgRNA (a). Cell viability when transduced with a non-coding stuffer sequence or ASB8 coding sequence at two different multiplicities of infection (MOI) (b). After four days of treatment with compound at the indicated concentrations, cell viability was measured by MTS assay. Data were normalized to untreated cells and represent mean ±SD of three separate experiments performed in triplicate. IC50 values were compared with control using an extra sum-of-squares F-test. c-d Monitoring of XPOL degradation in HAP1 cells with western blot. Comparison of cells stably transduced with a safe-targeting versus ASB8 targeting sgRNA (c) or with a stuffer sequence versus ASB8 coding sequence (d). Cells were treated overnight with selinexor and bortezomib as indicated. Cells were harvested and total lysates were probed for XPO1 and TUBB (β-tubulin) protein levels. e Time-of-drug-addition assay in HAP1 cells harboring a stuffer or ASB8 coding sequence (MOI=0.2). Duration of treatment with selinexor is as indicated. For bortezomib, length of treatment was 24 h for all conditions. f Selinexor-induced degradation of XPO1 in HAP1 cells with an endogenous Cys528Ser mutation introduced by CRISPR-mediated homology-directed repair. Following stable transduction of XPOL wild-type and mutant cells with a stuffer or ASB8 coding sequence (MOI=0.2), cells were treated overnight with compound as indicated.
For the experiments monitoring XPO1 degradation, HAP1 cells were seeded in 6-well plates at 100,000 cells/mL. The next day, cells were treated with selinexor and/or bortezomib as indicated. The pan-caspase inhibitor Q-VD-OPh was added to all conditions at 10 µM final concentration to delay onset of apoptosis. Cells were treated with compound overnight or as indicated. Next, cells were harvested, washed with ice-cold PBS and lysed in RIPA buffer (Thermo Fisher Scientific) with 1× HALT Protease Inhibitor Cocktail (Thermo Fisher Scientific) on ice for 20 min. Cell debris was removed by centrifugation at 20.000 × g and 4 °C for 10 min and total protein content was quantified with the Pierce BCA Protein Assay kit (Thermo Fisher Scientific). We used an automated, capillary-based Simple Western size assay (Wes, ProteinSimple) to detect and quantify our proteins of interest. 5 µL of lysate at a final concentration of 200 µg/mL was loaded onto the assay plate. For detection, the following primary antibodies and dilutions were used: CRM1/XPO1 (NB100-79802, Novus, 1:1000), TUBB (NB600-936, Novus, 1:40) and FLAG (F4049, Sigma-Aldrich, 1:250). […]

HAP1 cells = experiment: Live cell count to establish selinexor IC values for CRISPR screening; format: cell-based; conditions: Homo sapiens, 96 h, live cells counted after four days and compared to untreated control flask
Excerpt: To detect gene loss-of-function events that modulate sensitivity to XPO1 inhibition, we conducted genome-wide CRISPR-Cas9 screens in cells under selection with selinexor. We selected HAP1 cells for our initial screen as this chronic myeloid leukemia cell line is a relevant model^66,67 and has suitable characteristics for CRISPR screening, including a high proliferation rate and transduction efficiency. HAP1 cells were transduced with the Brunello genome-wide CRISPR knockout library in the one-vector configuration, in which sgRNA and Cas9 are expressed from a single lentiviral construct. Cells were split into control (DMSO) and selinexor-treated arms, further divided into three replicates per arm and passaged in parallel for 24 days (Fig. 1a). Selinexor was used at a concentration of 100 nM, corresponding to the IC50, i.e., the concentration at which the live cell count in the treated arm was half of that in the control arm after […]. At each passage, cells were harvested and per arm, an equal number of cells was reseeded with fresh compound. […]
To establish IC values for screening, cells were seeded in 150-cm^2 flasks and treated with selinexor at different concentrations for four days after which live cells were counted and compared to an untreated control flask. […]

ASB8 = experiment: Immunofluorescence staining of subcellular ASB8 localization in HAP1 cells; format: cell-based, human; conditions: stable FLAG-ASB8 expressing HAP1 cells; 200 nM overnight
Excerpt: Figure 10. a Viability of KMS-28BM cells stably transduced with a stuffer or ASB8 coding lentiviral vector and treated with different concentrations of selinexor. b-e Viability of ASB8 knockout and ASB8 overexpressing HAP1 cells treated with different concentrations of KPT-9274 (b, c) or ispinesib (d, e). f-g Viability of ASB8 overexpressing KMS-28BM cells treated with different concentrations of KPT-9274 (f) or ispinesib (g). After four days (HAP1) or six days (KMS-28BM) of treatment with compound at the indicated concentrations, cell viability was measured by MTS assay. Data were normalized to untreated cells and represent mean ±SD of two or three separate experiments performed in triplicate. IC50 values were compared with control using an extra sum-of-squares F-test. h Representative images of fluorescence microscopy imaging of subcellular ASB8 localization. HAP1 cells with a stably integrated FLAG-ASB8 or a non-coding stuffer sequence were treated overnight with DMSO or 200 nM selinexor. Cells were fixed and stained with a primary anti-FLAG antibody. Nuclei were stained with DAPI. Figure 11. Co-immunoprecipitation of XPO1 with ASB8. HEK293T cells were transiently transfected with XPOL together with either FLAG-ASB8 or KPNA3-FLAG (control) plasmids. After 24 hours, selinexor was added at the indicated concentrations and cells were incubated for an additional 15 minutes. […]

ASB8 interacts with XPO1 = molecular target: T2, ASB8 interacts with XPO1 (Homo sapiens, UniProt O14980); experiment: Co-immunoprecipitation of XPO1 with FLAG-ASB8 in HEK293T cells; format: binding; conditions: HEK293T cells co-transfected with XPO1 and FLAG-ASB8; 15 minutes treatment; higher concentrations
T2 construct: expressed in transfected cells; host or cells: HEK293T cells, transient transfection (TurboFectin 8.0)
Procedure: Figure 5. ASB8 interacts with XPO1. HEK293T cells were transiently transfected with XPO1 alone or together with either FLAG-ASB8 or FLAG-luc2 plasmids. After 24 hours, selinexor was added at the indicated concentrations and cells were incubated for 15 minutes. Next, cells were collected and incubated with lysis buffer for 20 minutes (whole-cell lysate, WCL). From these lysates, FLAG fusions were pulled down and co-immunoprecipitation of XPO1 was checked with western blot (IP: FLAG).
as §2
The protocol for lysis and co-immunoprecipitation was modified from an earlier report^64. […] After 15 min of incubation, cells were harvested and counted. […]

XPO1 Cys528Ser mutation = molecular target: T3, XPO1 Cys528Ser mutation (Homo sapiens, UniProt O14980, C528S); experiment: Western blot (Simple Western) monitoring XPO1 degradation in HAP1 XPO1 C528S mutant cells; format: cell-based; conditions: HAP1 cells with endogenous XPO1 Cys528Ser mutation; control and ASB8 overexpressing; overnight treatment
T3 construct: HAP1 cells with an endogenous Cys528Ser mutation introduced by CRISPR-mediated homology-directed repair; endogenous in cells
Excerpt: as §1, with “(d).” for “(d). Cells were treated overnight with selinexor and bortezomib as indicated.”
For the experiments monitoring XPO1 degradation, HAP1 cells were seeded in 6-well plates at 100,000 cells/mL. […] Cell debris was removed by centrifugation at 20.000 × g and 4 °C for 10 min and total protein content was quantified with the Pierce BCA Protein Assay kit (Thermo Fisher Scientific). We used an automated, capillary-based Simple Western size assay (Wes, ProteinSimple) to detect and quantify our proteins of interest. […]

RL cells = experiment: Live cell count to establish selinexor IC values for CRISPR screening; format: cell-based; conditions: Homo sapiens, 96 h, live cells counted after four days and compared to untreated control flask
Procedure: (§3) To establish IC values for screening, cells were seeded in 150-cm^2 flasks and treated with selinexor at different concentrations for four days after which live cells were counted and compared to an untreated control flask. HAP1, KMS-28BM and SK-MM-1 cells were screened with the one-vector library encoding both sgRNA and Cas9 while for DS and RL cells, the two-vector library, which uses two separate vectors for the sgRNA and Cas9, was used. Cells were transduced at a MOI of approximately 0.25 and a coverage of >200-fold. Puromycin-selected cells were allowed to recover for 4-7 days after which selection with selinexor started. […] In addition, KMS-28BM were also screened at IC20, corresponding to a concentration of 40 nM. Finally, for every cell line, a no-drug condition was included (DMSO). For each condition, three parallel replicates containing at least 20 × 10^6 cells each were initiated after puromycin selection and maintained independently throughout screening and downstream processing. Cells were passaged every 2-4 days and cell pellets of 20 × 10^6 were collected at regular intervals. Screening continued for >20 cell doublings, more precisely until day 24, 42, 28, 28 and 25 for HAP1, KMS-28BM, SK-MM-1, DS and RL cells, respectively.

DS cells = experiment: as above; format: cell-based; conditions: Homo sapiens, 96 h, live cells counted after four days and compared to untreated control flask
Procedure: as §3

SK-MM-1 cells = experiment: as above; format: cell-based; conditions: Homo sapiens, 96 h, live cells counted after four days and compared to untreated control flask
Procedure: as §3

KMS-28BM cells = experiment: as above; format: cell-based; conditions: Homo sapiens, 96 h, live cells counted after four days and compared to untreated control flask
Procedure: as §3

T1 sequence (O14980 whole entry): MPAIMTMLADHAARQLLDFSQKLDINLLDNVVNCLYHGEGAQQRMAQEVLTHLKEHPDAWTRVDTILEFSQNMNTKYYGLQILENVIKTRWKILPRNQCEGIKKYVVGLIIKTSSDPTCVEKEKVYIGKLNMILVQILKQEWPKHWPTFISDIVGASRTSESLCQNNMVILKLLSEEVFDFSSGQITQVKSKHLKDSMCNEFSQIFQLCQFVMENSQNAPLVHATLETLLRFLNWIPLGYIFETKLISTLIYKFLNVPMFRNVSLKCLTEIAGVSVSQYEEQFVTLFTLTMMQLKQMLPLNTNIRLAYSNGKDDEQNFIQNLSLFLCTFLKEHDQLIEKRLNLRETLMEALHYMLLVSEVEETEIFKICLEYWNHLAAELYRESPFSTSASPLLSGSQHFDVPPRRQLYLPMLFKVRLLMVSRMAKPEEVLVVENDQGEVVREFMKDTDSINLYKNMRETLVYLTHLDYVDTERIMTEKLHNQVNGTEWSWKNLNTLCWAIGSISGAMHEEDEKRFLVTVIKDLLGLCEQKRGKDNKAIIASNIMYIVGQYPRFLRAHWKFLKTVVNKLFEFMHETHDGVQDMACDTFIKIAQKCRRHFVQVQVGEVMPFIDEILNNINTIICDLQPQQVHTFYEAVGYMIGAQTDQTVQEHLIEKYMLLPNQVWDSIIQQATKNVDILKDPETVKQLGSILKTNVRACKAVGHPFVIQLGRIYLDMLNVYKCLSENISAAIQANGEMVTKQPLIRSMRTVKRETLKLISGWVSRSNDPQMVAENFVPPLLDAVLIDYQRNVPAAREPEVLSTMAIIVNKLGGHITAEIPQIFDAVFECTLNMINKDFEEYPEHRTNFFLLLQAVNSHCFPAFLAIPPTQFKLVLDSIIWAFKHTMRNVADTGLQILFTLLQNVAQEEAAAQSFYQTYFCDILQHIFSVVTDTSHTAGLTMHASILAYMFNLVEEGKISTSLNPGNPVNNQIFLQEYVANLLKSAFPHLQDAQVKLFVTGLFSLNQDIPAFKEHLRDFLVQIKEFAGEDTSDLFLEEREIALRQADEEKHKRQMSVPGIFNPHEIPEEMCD
T3 sequence (O14980 whole entry C528S): as the sequence (O14980 whole entry) above, with C528S counted along it
T2 sequence (O14980 whole entry): as the sequence (O14980 whole entry) above
T2 sequence (Q9H765 whole entry partner): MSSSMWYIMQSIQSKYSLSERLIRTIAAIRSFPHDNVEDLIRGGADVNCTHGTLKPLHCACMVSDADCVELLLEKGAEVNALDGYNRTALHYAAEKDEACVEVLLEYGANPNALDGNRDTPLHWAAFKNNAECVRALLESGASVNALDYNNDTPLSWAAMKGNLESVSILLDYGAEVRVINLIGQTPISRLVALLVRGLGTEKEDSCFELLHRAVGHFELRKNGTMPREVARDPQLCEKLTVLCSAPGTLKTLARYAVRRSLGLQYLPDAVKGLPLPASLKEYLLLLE

O=C(/C=C\n1cnc(-c2cc(C(F)(F)F)cc(C(F)(F)F)c2)n1)NNc1cnccn1 [selinexor]
sensitivity (dose-response) in ASB8 knockout and overexpressing cells versus control [1]: increased sensitivity
XPO1 degradation (XPO1; HAP1 ASB8 knockout cells): did not observe selinexor-induced XPOL degradation to the same extent
XPO1 degradation (XPO1; HAP1 ASB8 overexpressing cells, with and without bortezomib): XPO1 was profoundly depleted even in the presence of bortezomib
XPO1 degradation (XPO1; HAP1 control cells with safe-targeting sgRNA): dose-dependent degradation of XPO1
IC50 (HAP1 cells): 100 nM
nuclear accumulation of ASB8 (ASB8): did not observe nuclear accumulation of ASB8
amount of XPO1 co-immunoprecipitated with FLAG-ASB8 (ASB8 interacts with XPO1): increased the amount of immunoprecipitated XPO1
XPO1 degradation (XPO1 Cys528Ser mutation): did not trigger XPO1 degradation
IC50 (RL cells): 40 nM
IC50 (DS cells): 200 nM
IC50 (SK-MM-1 cells): 140 nM
IC20 (KMS-28BM cells): 40 nM
IC50 (KMS-28BM cells): 125 nM

CC(C)C[C@H](NC(=O)[C@H](Cc1ccccc1)NC(=O)c1cnccn1)B(O)O [bortezomib]
effect on selinexor-induced XPO1 degradation (XPO1; HAP1 control cells with safe-targeting sgRNA, co-treatment with selinexor overnight): prevented

Cc1ccc(C(=O)N(CCCN)[C@@H](c2nc3cc(Cl)ccc3c(=O)n2Cc2ccccc2)C(C)C)cc1 [ispinesib]
sensitivity (dose-response) in ASB8 knockout and overexpressing cells versus control [1]: no difference in response

Nc1ccc(/C=C/C(=O)NCc2cc3cc(-c4ccc(C(=O)N5CCC(F)(F)CC5)cc4)cc(-c4ccc(F)cc4)c3o2)cn1 [KPT-9274]
sensitivity (dose-response) in ASB8 knockout and overexpressing cells versus control [1]: no difference in response
